{"source": "patent US20180177749A1", "about": "“USE OF CYP EXPRESSION TO DIRECT THERAPEUTIC INTERVENTION IN CANCER” (REGENTS OF THE UNIVERSITY OF MINNESOTA, priority 2016, published 2018)", "key": {"[1]": {"tested_on": "MDA-MB-231 cells", "assay": "Measurement of OCR and ECAR, MDA-MB-231", "assay_type": "cell-based, human", "conditions": "t-AUCB 2.5, 5 μM, HBB 20, 40 μM", "protocol": "Cells were maintained in growth medium consisting of 10% FBS at 37° C. with 5% CO2 and seeded at 100,000 cells per well in XF24-well cell culture microplates (Seahorse Bioscience, North Billirica, Mass.). Concentrated stocks of HBB were prepared in DMSO. HBB was diluted to 10× working concentration in XF assay medium (a non-buffered medium including 2 mM L-glutamine but no sodium bicarbonate (buffering agent), glucose, or sodium pyruvate). Assays were performed in the XF Extracellular Flux Analyzer (Seahorse Bioscience that measures uptake and excretion of metabolic end products in real time). Oxygen consumption rate (OCR) and extracellular acidification rate (ECAR) were measured using an XF Assay Kit. OCR is reported in pmoles/minute and ECAR in mpH/minute. Before analysis, the cells were switched from culture medium to XF assay medium. After baseline measurements, 75 μl of HBB prepared in assay medium was injected into each well to reach final working concentrations. After addition of HBB, OCR and ECAR were measured at 18-minute intervals. […] There were 6 replicates for the studies of the 3-18 and 4-14 cell lines."}, "[2]": {"tested_on": "MCF-7", "assay": "MTT cell proliferation assay, MCF-7", "assay_type": "cell-based", "conditions": "Homo sapiens, MCF7", "protocol": "Cells were grown at 37° C. in a 5% CO2 incubator. […] MTT was then added (5 mg/ml), and after 2 h of incubation, the plates were centrifuged. The supernatant was removed; DMSO was added, and the absorbance was read at 540 nm with a BioTek 96-well plate reader."}, "[3]": {"biological_target": "T1, CYP3A4 (Homo sapiens, UniProt P08684)", "T1 construct": "host or cells: insect cells (microsomes)", "T1 sequence (P08684 whole entry)": "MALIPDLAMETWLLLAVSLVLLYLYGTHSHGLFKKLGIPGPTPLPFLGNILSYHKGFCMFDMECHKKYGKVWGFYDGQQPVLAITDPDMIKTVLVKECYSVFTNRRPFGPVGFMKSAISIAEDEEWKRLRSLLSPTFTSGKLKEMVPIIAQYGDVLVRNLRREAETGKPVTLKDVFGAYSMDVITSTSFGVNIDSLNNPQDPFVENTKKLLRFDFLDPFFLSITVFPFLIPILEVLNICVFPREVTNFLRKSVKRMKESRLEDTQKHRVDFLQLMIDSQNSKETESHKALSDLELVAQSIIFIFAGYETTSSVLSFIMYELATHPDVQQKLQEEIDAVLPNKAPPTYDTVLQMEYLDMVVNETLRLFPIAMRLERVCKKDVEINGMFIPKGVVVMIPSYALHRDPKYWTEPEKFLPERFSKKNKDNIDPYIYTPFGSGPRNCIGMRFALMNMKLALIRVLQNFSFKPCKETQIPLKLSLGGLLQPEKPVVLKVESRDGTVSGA", "assay": "Recombinant microsomal CYP-mediated EET biosynthesis (CYP3A4 Supersomes)", "assay_type": "biochemical", "conditions": "for IC50: microsomal CYP3A4", "text": "(§1) Samples were submitted to liquid chromatography-electrospray ionization/multiple reaction monitoring/mass spectrometry (LC-ESI/MRM/MS) analysis in a Thermo Electron Quantum Discovery Max triple quadrupole mass spectrometer (Thermo Finnigan, San Jose, Calif.) coupled with an Agilent 1100 HPLC (Santa Clara, Calif.), using argon as the collision gas. […] A standard curve was obtained by linear regression of the peak area ratio of authentic EET regioisomers against internal standards. The amount of EETs in samples was calculated according to the standard curve. The (±)-5,6-EET regioisomer was not measured because it undergoes rapid internal degradation.\n(§2) CYP3A4 or 2C8 Supersomes™ (BD Biosciences) were incubated at 37° C. for 30 min in the presence of AA (5 μM) in […] Tris-HCl, pH 7.4, containing 1 mm EDTA and 1 mm NADPH. Reactions were terminated by adding methylene chloride (0.5 ml). Samples were centrifuged at 3,000 rpm for 10 min and 150 μl of the organic phases were evaporated under nitrogen. Samples were reconstituted in 20 μl of MeOH containing [^13C20]EET internal standards and submitted to a Thermo Electron Quantum Discovery Max triple quadrupole mass spectrometer (Thermo Finnigan, San Jose, Calif.) coupled with an Agilent 1100 HPLC (Santa Clara, Calif.) for analysis. […] Concentrations of EETs generated by CYP Supersomes™ were calculated by linear regression against standard curve generated with EET standards."}, "[4]": {"biological_target": "T2, CYP3A4 vs CYP2C8 (Homo sapiens, UniProt P08684)", "T2 construct": "host or cells: insect cells (microsomes)", "T2 sequence (P08684 whole entry)": "as above", "assay": "Recombinant microsomal CYP-mediated EET biosynthesis (CYP3A4 Supersomes)", "assay_type": "biochemical", "conditions": "human, CYP3A4 or CYP2C8 Supersomes (recombinant microsomes), pH 7.4, probe arachidonic acid (AA), 5 μM; CYP3A4 vs CYP2C8; read-out: selectivity for CYP3A4 epoxygenase activity", "text": "as §1, §2"}, "[5]": {"tested_on": "MCF-7 cells", "assay": "Cellular ATP by luminescent assay", "assay_type": "cell-based, human", "protocol": "Cells were seeded in 96-well tissue culture plate in 100 μL medium per well. After treatment with either vehicle or testing compound for an appropriate length of time, 50 μL mammalian cell lysis solution was added to each well and the plate was shaken for 5 minutes on an orbital shaker. To each well, 50 μL luminescent substrate and luciferase solution were then added. After incubation in the dark for 10 minutes, the luminescence measured. Cellular ATP levels were then calculated against a standard curve generated with ATP standards of known concentration."}}, "note": "Like-named read-outs stand apart in the source and are kept apart here."}
{"smiles": "CCCCCCNC(=N)NC(=N)NCc1ccccc1", "note": "[HBB, N1-hexyl-N5-benzyl-biguanide]", "values": [{"measurement": "extracellular acidification rate (ECAR)", "setting": "[1]", "result": "least inhibition of ECAR"}, {"measurement": "oxygen consumption rate (OCR)", "setting": "[1]", "result": "significant vs. vehicle"}, {"measurement": "IC50", "setting": "[2]; MCF-7, ER+[PR+]HER2−, read-out: IC50", "result": 20.1, "unit": "µM"}, {"measurement": "IC50", "setting": "[2]; read-out: IC50 MCF-7", "result": 20, "unit": "µM"}, {"measurement": "Ki", "setting": "[3]; CYP3A4 epoxygenase activity", "result": 9, "unit": "µM"}, {"measurement": "IC50", "setting": "[3]; read-out: IC50, CYP3A4 synthesis of (±)-8,9-EET", "result": 9.5, "unit": "µM"}, {"measurement": "IC50", "setting": "[3]; read-out: IC50, CYP3A4 synthesis of (±)-11,12-EET", "result": 8, "unit": "µM"}, {"measurement": "selectivity ratio at 30 min", "setting": "[4]", "result": "5 to 7"}, {"measurement": "ATP depletion", "setting": "[5]; 6 hours", "result": 30, "unit": "%"}, {"measurement": "total cellular ATP levels", "setting": "[5]; 6 hours of treatment, metformin 5 mM", "result": "reduced"}]}
